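The compound was tested at five concentrations on cells cultured in 96-well plates, with a 48-hour exposure period. GI50 marks 50% less growth.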 Calls of active or inactive are those of the source. Rule as the data show it: active = GI50 up to about 1.1 µM and inactive = higher.
Key:
Assay in all cases: NCI tumour cell line growth inhibition, 48 h
NCI-H460 = system: NCI-H460
NCI-H522 = system: NCI-H522
SF-268 = system: SF-268
SNB-19 = system: SNB-19
A549 = system: A549
OVCAR-5 = system: OVCAR-5
NCI-H226 = system: NCI-H226
TK-10 = system: TK-10
RXF 393 = system: RXF 393
SNB-75 = system: SNB-75
UO-31 = system: UO-31
HT-29 = system: HT-29
HL-60 = system: HL-60
OVCAR-8 = system: OVCAR-8
CCRF-CEM = system: CCRF-CEM

Measured: GI50

COC(=O)C(C(=O)C(=O)Nc1nc2ccc(OC)cc2s1)c1cnc2ccccc2n1 (centres undefined)
inactive: NCI-H460 > 100 µM | NCI-H522 > 100 µM | SF-268 > 100 µM | SNB-19 > 100 µM | A549 > 100 µM | OVCAR-5 > 100 µM | NCI-H226 > 100 µM | TK-10 > 100 µM | RXF 393 > 100 µM | SNB-75 > 100 µM | UO-31 > 100 µM | HT-29 > 100 µM

FC(F)(F)c1ccccc1C1SCc2nc3ccccc3n21 (centres undefined)
inactive: HL-60 10.2 µM | NCI-H522 18.3 µM | SF-268 61.9 µM | SNB-19 > 100 µM | A549 41.6 µM | OVCAR-8 61.4 µM | OVCAR-5 28.8 µM | NCI-H226 39.4 µM | TK-10 > 100 µM | RXF 393 91.8 µM | SNB-75 > 100 µM | CCRF-CEM 27.4 µM | UO-31 49.7 µM | HT-29 33.8 µM

CCN1C(=O)C/C(=C\C(C)=O)Nc2ccccc21
inactive: NCI-H460 > 100 µM | NCI-H522 > 100 µM | SF-268 > 100 µM | SNB-19 > 100 µM | A549 > 100 µM | OVCAR-8 > 100 µM | OVCAR-5 > 100 µM | NCI-H226 > 100 µM | TK-10 > 100 µM | RXF 393 > 100 µM | SNB-75 21.5 µM | CCRF-CEM > 100 µM | UO-31 > 100 µM | HT-29 > 100 µM

Oc1ccccc1/C=N/c1ccccc1/N=C/c1ccccc1O
inactive: HL-60 15 µM | NCI-H460 62.8 µM | NCI-H522 16.7 µM | SF-268 88.1 µM | SNB-19 34.4 µM | A549 > 100 µM | OVCAR-8 > 100 µM | NCI-H226 65.6 µM | TK-10 > 100 µM | CCRF-CEM 8.3 µM | HT-29 > 100 µM

CN(C)c1snc2c1c(=O)n(C)c(=O)n2C
inactive: HL-60 > 100 µM | NCI-H460 > 100 µM | NCI-H522 > 100 µM | SF-268 > 100 µM | SNB-19 > 100 µM | A549 > 100 µM | OVCAR-8 > 100 µM | OVCAR-5 > 100 µM | NCI-H226 65.2 µM | TK-10 > 100 µM | SNB-75 35.7 µM | CCRF-CEM > 100 µM | UO-31 > 100 µM | HT-29 > 100 µM

CN1CCN(CCSC2Cc3cc(Cl)ccc3Sc3ccccc32)CC1 (centres undefined)
inactive: HL-60 1.73 µM | NCI-H460 4.95 µM | NCI-H522 5.93 µM | SF-268 8.47 µM | SNB-19 13.9 µM | A549 6.05 µM | OVCAR-8 7.91 µM | OVCAR-5 5.37 µM | NCI-H226 16.9 µM | TK-10 5.13 µM | RXF 393 4.19 µM | SNB-75 5.82 µM | UO-31 8.11 µM | HT-29 1.63 µM

CCOC(=O)N1c2c(ccn2C)-c2ccn(C)c2N1C(=O)OCC
inactive: HL-60 5.09 µM | NCI-H460 19.4 µM | NCI-H522 11.3 µM | SF-268 19.1 µM | SNB-19 > 10 µM | A549 20.9 µM | OVCAR-8 14.1 µM | OVCAR-5 17.4 µM | NCI-H226 19.7 µM | SNB-75 15.5 µM | CCRF-CEM 2.64 µM | UO-31 19.8 µM | HT-29 15.7 µM

N=CCCN(CCC=N)c1ccc(/C=C2\CN(NC(=O)c3ccc(Cl)cc3)C(c3ccccc3)=N2)cc1
inactive: HL-60 > 100 µM | NCI-H460 > 100 µM | SF-268 > 100 µM | SNB-19 > 100 µM | A549 > 100 µM | OVCAR-8 > 100 µM | OVCAR-5 > 100 µM | NCI-H226 > 100 µM | TK-10 > 100 µM | SNB-75 > 100 µM | CCRF-CEM > 100 µM | UO-31 > 100 µM | HT-29 > 100 µM

COc1ccc(CC#N)c(OCc2ccccc2)c1
inactive: HL-60 > 10 µM | NCI-H460 61 µM | NCI-H522 38.9 µM | SF-268 68.4 µM | SNB-19 40.6 µM | A549 78.3 µM | OVCAR-8 > 100 µM | NCI-H226 6.73 µM | CCRF-CEM > 100 µM | UO-31 42.2 µM

NC(=O)c1cc(C2OC(CO)C(O)C2O)nn1-c1ccc([N+](=O)[O-])cc1 (centres undefined)
inactive: HL-60 > 100 µM | NCI-H460 > 100 µM | SF-268 > 100 µM | SNB-19 > 100 µM | A549 > 100 µM | OVCAR-8 > 100 µM | OVCAR-5 > 100 µM | NCI-H226 > 100 µM | TK-10 > 100 µM | RXF 393 > 100 µM | SNB-75 > 100 µM | CCRF-CEM > 100 µM | UO-31 > 100 µM | HT-29 > 100 µM

— ChEMBL document CHEMBL1201862, “PubChem BioAssay data set” (2004)
